Measurements published in patent US20230279246A1, “MOLECULE-CONTAINING SURFACES AND METHODS OF PREPARATION THEREOF” (University of Durham, priority 2020, published 2023).

Test system: Gram-negative Escherichia coli BW25113
Assay: Antibacterial testing of coated substrates, CFU plate counting
Conditions: relative to untreated substrate; for Bacteria Loss/Log10 Reduction E. coli (Gram-negative): coated PET film, 4 h at 30 °C, mean ± standard deviation; for Log10 Reduction E. coli: plasma poly(4-vinylaniline) series, title: polypropylene film, text: PET substrates, average ± standard deviation
Procedure: The prepared substrates with their respective coatings were subsequently tested for their antibacterial qualities against representative species of Gram-negative and Gram-positive bacteria. Gram-negative Escherichia coli BW25113 (CGSC 7636; rrnB3 ΔlacZ4787 hsdR514 Δ(araBAD)567 Δ(rhaBAD)568 rph-1) and Gram-positive Staphylococcus aureus (FDA209P, an MSSA strain; ATCC 6538P) bacteria cultures were prepared using autoclaved (Autoclave Vario 1528, Dixons Ltd.) Luria-Bertani broth media (LB; L3022, Sigma-Aldrich Ltd., 2% w/v in Milli-Q® grade water). A 5 ml bacterial culture was grown from a single colony for 16 h at 37° C., and then 50 μL used to inoculate a sterile polystyrene cuvette (Catalogue No. 67.742, Sarstedt AG) containing 1 mL of LB Broth. The cuvette was covered with Parafilm (Cole-Parmer Ltd.) and then placed inside a shaking incubator (model Stuart Orbital Incubator S1500, Cole-Parmer Ltd.) set at 37° C. and 120 rpm. An optical density OD600nm=0.4 was verified using a UV-Vis spectrophotometer (model Jenway 6300, Cole-Parmer Ltd.) to obtain bacteria at the mid-log phase of growth.
Uncoated control samples were washed in absolute ethanol for 15 minutes and then dried under vacuum in order to make sure they were sterile and clean. Sterile microtubes (1.5 mL, Sarstedt AG) were loaded with the untreated, or coated substrates. Next, 100 μL of the prepared bacterial culture was placed onto each substrate (so that the microorganisms could interact with one side of the surface), and left to incubate (model Bacterial Incubator 250, LMS Ltd.) for 4 hours at 30° C. Next, 900 μL of autoclaved Luria-Bertani broth media was pipetted into each microtube and vortexed (model Vortex-Genie 2, Scientific Industries Inc.) in order to recover the bacteria as a 10-fold dilution (10^−1). Further ten-fold serial dilutions were undertaken to provide 10^−2, 10^−3, 10^−4, 10^−5 and 10^−6 samples. Colony-forming unit (CFU) plate counting was performed by placing 10 μL drops from each diluted sample onto autoclaved Luria-Bertani Agar solid plates (EZMix™ powder, dust free, fast dissolving fermentation medium, L7533, Sigma-Aldrich Ltd.) and incubated (model Bacterial Incubator 250, LMS Ltd.) for 16 hours at 30° C. The number of colonies visible at each dilution were then counted. All tests were performed in triplicate.
Gram-negative Escherichia coli BW25113 (CGSC 7636; rrnB3 ΔlacZ4787 hsdR514 Δ(araBAD)567 Δ(rhaBAD)568 rph-1) and Gram-positive Staphylococcus aureus (FDA209P, an MSSA strain; ATCC 6538P) bacteria cultures were prepared using autoclaved (Autoclave Vario 1528, Dixons Ltd.) Luria-Bertani broth media (LB; L3022, Sigma-Aldrich Ltd., 2% w/v in grade water). A 5 ml bacterial culture was grown from a single colony for 16 h at 37° C., and then 50 μL used to inoculate a sterile polystyrene cuvette (Part No. 67.742, Sarstedt AG) containing 1 mL of LB Broth. The cuvette was covered with Parafilm (Cole-Parmer Ltd.) and then placed inside a shaking incubator (model Stuart Orbital Incubator S1500, Cole-Parmer Ltd.) set at 37° C. and 120 rpm to allow the bacteria to grow until an optical density OD600nm=0.4 was measured using a UV-Vis spectrophotometer (model Jenway 6300, Cole-Parmer Ltd.) which corresponded to the mid-log phase growth of bacteria.
Antibacterial testing was performed within 24 h of fabricating the coatings. Uncoated control samples were cleaned and sterilized by washing in absolute ethanol for 15 min and drying under vacuum. Each uncoated or coated substrate piece was placed aseptically inside a sterile microtube (1.5 mL, Sarstedt AG) so that the microorganisms could interact with one side of the surface. Next, 100 μL of the prepared bacterial culture was pipetted onto each substrate. In practice, the porous substrates absorbed the liquid so that the entire 15 mm×15 mm area of the samples was permeated by the bacterial suspension.

Compound | Bacteria Loss/Log10 Reduction E. coli (Gram-negative) [Log10 Reduction] | Bacteria Loss/Log10 Reduction E. coli (Gram-negative) (listed as Tannic acid-only) | Bacteria Loss/Log10 Reduction E. coli (Gram-negative) (listed as cinnamaldehyde) | Log10 Reduction E. coli (listed as Cinnamaldehyde-only) [Log10 Reduction] | Log10 Reduction E. coli (listed as cinnamaldehyde-only)
O=C(OC[C@H]1O[C@@H](OC(=O)c2cc(O)c(O)c(OC(=O)c3cc(O)c(O)c(O)c3)c2)[C@H](OC(=O)c2cc(O)c(O)c(OC(=O)c3cc(O)c(O)c(O)c3)c2)[C@@H](OC(=O)c2cc(O)c(O)c(OC(=O)c3cc(O)c(O)c(O)c3)c2)[C@@H]1OC(=O)c1cc(O)c(O)c(OC(=O)c2cc(O)c(O)c(O)c2)c1)c1cc(O)c(O)c(OC(=O)c2cc(O)c(O)c(O)c2)c1 [Tannic Acid, tannic acid] | 0.00 | no antibacterial activity |  |  | 
O=C/C=C/c1ccccc1 [Cinnamaldehyde, trans-cinnamaldehyde] | 0.12 ± 0.07 |  | very small antibacterial effect | 0.12 ± 0.07 | very small effect
